Data published in patent US10251943B2, “PLIF multimeric peptides and uses thereof” (Ramot at Tel-Aviv University Ltd., priority 2012, dated 2019).
Entries after “also recorded” stand apart in the source; their conditions may differ. Bridges are numbered along the chain shown (N, C = ends). Roman numbers before positions name the chains, in order. Where no end group is shown, it is not given here.

Key:
human T cells (HDMAR) = experiment: Binding to HDMAR human T cell line (detected by anti-C24D IgG); type: cell-based
[1] = tested on: MCF-7 human breast cancer cells; experiment: MCF-7 tumor development in nude mice transfused with human PBMC; type: in vivo, Athymic BALB/c nude mice
Description: Athymic BALB/c nude mice were purchased from Harlan Laboratories Ltd. Mice were inoculated subcutaneously (s.c.) with MCF-7 human breast cancer cells (6×10^6), in the presence of an estrogen source (0.72 mg). The slow-release pellets (60-day release) were implanted s.c. into the cervical scapular space.
Buffy coats from blood bank donors were layered onto Lymphoprep solution (Nycomed, Oslo, Norway) and spun at 2000 rpm for 20 minutes. The interface layer was collected, washed twice, counted, and resuspended in PBS (pH 7.4) to the desired cell concentration. Human PBMC (50×10^6/0.5 ml) were injected intravenously after transplantation of MCF-7 tumor cells as described above.
In each experiment, mice were divided into groups of five. C24D dissolved in PBS pH 7.2 was injected i.p. to each mouse daily, at an optimal dose of 60 μg/0.2 ml. Control mice received daily injections of PBS.
Tumors were excised, measured, and fixed in phosphate-buffer formalin (pH 7.0) from which paraffin embedded blocks were prepared.
Four-micron tissue sections were cut from paraffin-embedded blocks and mounted on coated super frost plus slides. They were deparaffinized in xylene, and rehydrated with graded alcohols, rinsed in H2O, and then incubated in 3% H2O2 for 10 minutes and washed in H2O.
For antigen unmasking, the sections were heated in 10 mM of sodium citrate buffer (pH 6.0) for 10 minutes in microwaves or pressure chambers, depending on the manufacturer's instructions, and then cooled at room temperature for 20 minutes. Slides were washed in H2O and in PBS buffer for 5 minutes.
Slides were incubated in normal serum for 10 minutes from a kit (Zymed Laboratories, San Francisco, Calif.). For immunohistochemical staining, performed manually, slides were incubated with primary antibodies at previously determined optimal concentrations, for 60 minutes at room temperature, as summarized in Table 4, herein below.
Slides were washed in H2O and in PBS buffer for 5 minutes and further incubated for 10 minutes with a biothylated second antibody (Zymed Laboratories, San Francisco, Calif.), followed by PBS. […]

[2] = tested on: C48 receptor on human T cells; experiment: Inhibition of C48 binding to HDMAR human T cells (detected by anti-C48 IgG-FITC); type: cell-based; conditions: pre-incubation of HDMAR T cells with different concentrations
[3] = tested on: human PBMC activated with OKT3 MoAb; experiment: Cell stimulation and cytokine production (ELISA of supernatants); type: cell-based; conditions: for Level of INF-γ: vs control cultures; for Level of IL-10: vs control cells
Description: Peripheral blood mononuclear cells (PBMC) at 2×10^6 in 1 ml of 5% human serum/RPMI-1640 were cultured in a 10 ml round-bottom tube, treated with C48 (2 μg/ml), C24D (10 μg/ml), or non-treated. Subsequently, these cultures were stimulated with OKT3 MoAb (100 ng/ml) or non-stimulated. Supernatants were collected at 24, and 72 hours for analysis of IL-10 and other cytokines as indicated in each experiment.
The ELISA kits for the human cytokines TNF-α, IL-10 and IFN-γ were purchased from DPC, and R&D Systems, USA. These kits were used to quantify the indicated cytokines production in the supernatants, according to the manufacturer's instructions.
(§1) Buffy coats from blood bank donors were layered onto Lymphoprep solution (Nycomed, Oslo, Norway) and spun at 2000 rpm for 20 minutes. The interface layer was collected, washed twice, counted, and resuspended in PBS; pH 7.4 to the desired cell concentration.

T47D cells = experiment: T47D and PBMC co-culture in vitro; type: cell-based, human
Description: Human ductal breast epithelial tumor cell line (T47D) was maintained in RPMI-1640 medium supplemented with 10% fetal calf serum.
as §1
T47D was maintained in RPMI+FCS 10%. 1 day before the start of the experiment, the medium was replaced with RPMI+AB human serum 10%. PBMCs (1×10^6) were added to T47D (0.1×10^6) at a final volume 1 ml into 24-well plates. The cells were treated with C24D (30 μg/ml) at 0, 24 and 48 hours. The cells without treatment were used as a control. Plates were washed, fixed for 1 hour with 4% formaldehyde solution and stained with Giemsa for microscopic evaluation on experimental days 1, 5, and 8.
After five days of primary culture with T47D and C24D, PBMCs (1 million) were added to fresh T47D (0.1 million) at a final volume 1 ml into 24-well plates. The cells were treated with C24D (30 μg/ml) at 0, 24 and 48 hours. After 4 days of culture, the cells were examined. […] The ratio between T47D and PBMCs was 1:10. Two days after incubation the cells were examined as illustrated in FIGS. 20A-B.

[4] = tested on: MCF-7 human breast cancer cells; experiment: MCF-7 and PBMC co-culture in vitro; type: cell-based
Description: The MCF-7 human breast carcinoma cell line was maintained in monolayer cultures in RPMI-1640 medium supplemented with 10% fetal calf serum. For passages, confluent monolayer cultures were trypsinized with trypsin/EDTA solution (0.25%/0.05%, respectively), washed once, and seeded in culture medium.
as §1
MCF-7 was maintained in RPMI+fetal calf serum (FCS) 10%. 1 day before the experimental start, the medium was replaced with RPMI+human AB serum 10%. PBMC (1×10^6) were added to MCF-7 (0.1×10^6) at a final volume of 1 ml dispensed into 24-well plates. The cells were treated with C24D 30 μg/ml at 0, 24 and 48 hours. The cells without treatment were used as a control. Plates were washed, fixed for 1 hour with 4% formaldehyde solution and stained with Giemsa for microscopic evaluation on experimental days 1, 5, and 8.
PBMC were removed from the following cell cultures: a) non-treated control MCF-7+PBMC, b) control (only PBMC cultured with C24D), and c) C24D-treated MCF-7+PBMC. All were transferred to new untreated MCF-7 cell monolayer cultures.

human macrophages = experiment: Binding to the surface of human macrophages (FITC-labelled antibody detection); type: cell-based; conditions: detected by mouse anti-C24D IgG-FITC and rabbit anti-C48 IgG-FITC
pregnancy development = conditions: vaccination of mice prior to mating; cited from earlier work

Substance	Binding to the surface of human T cells (HDMAR) (human T cells (HDMAR))	Tumor growth ([1]; Nude mice transfused with human lymphocytes and engrafted with MCF-7, vs PBS)	Mean tumor volume ([1]; after 19 days, daily i.p. 60 μg, nude mice with MCF-7 and human PBMC) [mm^3]	Tumoral necrosis (histochemical analysis) ([1]; tumors removed from treated mice vs control)	Inhibition of the binding of C48 to T cells [2]	Level of INF-γ in the presence of C48 ([3]; 72 hours, together with C48)	Level of INF-γ ([3]; 72 hours)	Level of IL-10 when added together with C48 ([3]; culture together with C48)	Level of IL-10 [3]	T47D tumor cell lysis (T47D cells; 7 days of incubation with C24D and PBMCs)	Cytotoxicity on secondary T47D culture (T47D cells; PBMCs from 5-day primary culture added to fresh T47D, C24D 30 μg/ml, 4 days)	Lysis of T47D cancer cells (T47D cells; T47D and PBMC (1:10) cultured 5 days at 37° C.)	MCF-7 cell monolayer lysis (Giemsa staining) ([4]; MCF7 incubated with PBMC for 5 days)	Lysis of MCF-7 cancer cells ([4]; MCF-7 and PBMC (1:10) cultured 8 days at 37° C., C24D 30 μg/ml)	Cytotoxic effect and growth inhibition of MCF-7 cells ([4]; MCF-7 cultured with human PBMC for 5-8 days)	Cytotoxicity of transferred PBMC on secondary untreated MCF-7 culture ([4]; PBMC removed from C24D-treated MCF-7+PBMC cultures)	Binding to the surface of human macrophages (human macrophages)	Pregnancy development (pregnancy development)
C24-48M: monomeric synthetic polypeptide comprising the C48 terminal amino acids (aa) 24-48 (HHLLRPRRRKRPHSIPTPILIFRSP) [reference compound]	does not	–	–	–	–	–	–	–	–	–	–	–	–	–	–	–	–	–
C24D: covalently linked dimer of identical polypeptide chains, each SEQ ID NO: 1 plus N-terminal Cysteine and Glycine; SEQ ID NO: 102 (chain 1 CGHHLLRPRRRKRPHSIPTPILIFRSP; chain 2 CGHHLLRPRRRKRPHSIPTPILIFRSP; disulfide I:1-II:1)	bind similarly to the surface of human T cells; also recorded: binds to the surface of human T cells	inhibited significantly the tumor growth; also recorded: tumor growth inhibition and cytotoxicity	42.5±14	Large areas of tumoral necrosis	inhibits the binding of C48 to T cells	increased significantly	increased significantly; also recorded: high levels of INF-γ	decreased the high level of IL-10	did not increase the level of IL-10	An increase in tumor cell lysis	cytotoxic effect	resulted in lysis of the cancer cells	monolayer lysis	resulted in lysis of the cancer cells	cytotoxic effect and tumor cell growth inhibition	cytotoxic to the tumor cells	–	–
C48: subcloned recombinant C-terminal 48 amino acids of PLIF, its bioactive domain (SEQ ID NO: 100) (FPSPISPSPSCWHHYTTNRPQPQHHLLRPRRRKRPHSIPTPILIFRSP; Placental Immunoregulatory Ferritin (PLIF), C′, derived peptide C48)	bind similarly to the surface of human T cells	–	–	–	–	–	did not affect the INF-γ level; also recorded: no INF-γ	–	high level of IL-10; also recorded: high IL-10 levels	–	–	–	–	–	–	–	binds to the surface of human macrophages	prevented pregnancy development
